pIC50: −log10 of the molar value. Read-outs that look alike come from different tables or passages of the source.
How the values were obtained:
HDAC2 = HDAC2 (Homo sapiens, UniProt Q92769); test: HDAC biochemical activity measurement (fluorescent substrate deacetylation);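 also: HDAC2 enzyme with an acetyl-lysine fluorescent substrate, then developer added, fluorescence read at excitation 360 nm and emission 460 nm, inhibition measured across several compound concentrations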; settings: 37° C. 30 minutes
[1] = tested on: Hela (human cervical cancer cells); test: MTT cancer cell growth inhibition; type: cell-based; settings: Homo sapiens, HeLa, 72 h, MTT, 72 hours incubation, read-out: GI50 Hela
In short: (§1)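 GI50 values come from MTT viability: after 72 h compound exposure (final 10^−5–10^−10 M, three wells each) of cells plated overnight at 1500/well in 10% FBS medium, MTT was given for 4 h. The DMSO-solubilised formazan was then measured at 570 nm.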

[2] = tested on: HT1080 (human fibrosarcoma cells); test: MTT cancer cell growth inhibition; type: cell-based; settings: Homo sapiens, HT-1080, 72 h, MTT, 72 hours incubation, read-out: GI50 HT1
In short: as §1

[3] = tested on: MCF-7 (human breast cancer cells); test: MTT cancer cell growth inhibition; type: cell-based; settings: Homo sapiens, MCF7, 72 h, 72 hours incubation, read-out: GI50 MCF
In short: as §1

[4] = tested on: MOLT-4 (human acute lymphoblastic leukemia cells); test: MTT cancer cell growth inhibition; type: cell-based; settings: Homo sapiens, MOLT-4, 72 h, MTT, 72 hours incubation, read-out: GI50 Mol
In short: as §1

[5] = tested on: A549 (human lung cancer cells); test: MTT cancer cell growth inhibition; type: cell-based; settings: Homo sapiens, A549, 72 h, MTT, 72 hours incubation, read-out: GI50 A54
In short: as §1

[6] = tested on: BGC-823 (human gastric cancer cells); test: MTT cancer cell growth inhibition; type: cell-based; settings: Homo sapiens, BGC-823, 72 h, MTT, 72 hours incubation, read-out: GI50 BG
In short: as §1

[7] = tested on: PANC-1 (Pac-1, human pancreatic cancer cells); test: MTT cancer cell growth inhibition; type: cell-based; settings: Homo sapiens, PANC-1, 72 h, MTT, 72 hours incubation, read-out: GI50 PAN
In short: as §1

[8] = tested on: N-87 (human gastric cancer cells); test: MTT cancer cell growth inhibition; type: cell-based; settings: Homo sapiens, 72 h, MTT, 72 hours incubation, N-87 cells; read-out: GI50 N-87
In short: as §1

[9] = tested on: U937 (human leukemia cells); test: MTT cancer cell growth inhibition; type: cell-based; settings: Homo sapiens, U-937, 72 h, MTT, 72 hours incubation, read-out: GI50 U93
In short: as §1

[10] = tested on: SGC-7901 (human gastric cancer cells); test: MTT cancer cell growth inhibition; type: cell-based; settings: Homo sapiens, SGC-7901, 72 h, MTT, 72 hours incubation, SGC-7901 cells; read-out: GI50 SGC-7901
In short: as §1

[11] = tested on: K562 (human leukemia cells); test: MTT cancer cell growth inhibition; type: cell-based; settings: Homo sapiens, K562, 72 h, MTT, 72 hours incubation, K562 cells; read-out: GI50 K562
In short: as §1

[12] = tested on: DU145 (human prostate cancer cells); test: MTT cancer cell growth inhibition; type: cell-based; settings: Homo sapiens, DU-145, 72 h, MTT, 72 hours incubation, read-out: GI50 Du1
In short: as §1

[13] = tested on: HCC827 (human non-small cell lung cancer cells); test: MTT cancer cell growth inhibition; type: cell-based; settings: Homo sapiens, HCC827, 72 h, MTT, 72 hours incubation, HCC827 cells; read-out: GI50 HCC827
In short: as §1

[14] = tested on: lncap (prostate cancer cells); test: MTT cancer cell growth inhibition; type: cell-based; settings: Homo sapiens, LNCaP, 72 h, MTT, 72 hours incubation, read-out: GI50 lnca
In short: as §1

[15] = tested on: Huh-7 (human hepatoma cells); test: MTT cancer cell growth inhibition; type: cell-based; settings: Homo sapiens, Huh-7, 72 h, MTT, 72 hours incubation, Huh-7 cells; read-out: GI50 Huh-7
In short: as §1

[16] = tested on: MDA-MB-231 (breast cancer cells); test: MTT cancer cell growth inhibition; type: cell-based; settings: Homo sapiens, MDA-MB-231, 72 h, read-out: GI50 MDA-MB-231, MTT, 72 hours incubation, MDA-MB-231 cells
In short: as §1

[17] = tested on: KBM5-T315I (human chronic myelogenous leukemia); test: MTT cancer cell growth inhibition; type: cell-based; settings: Homo sapiens, 72 h, MTT, 72 hours incubation, KBM5-T315I cells; read-out: GI50 KBM5-T315I
In short: as §1

[18] = tested on: H1975 (non-small cell lung adenocarcinoma); test: MTT cancer cell growth inhibition; type: cell-based; settings: Homo sapiens, NCI-H1975, 72 h, MTT, 72 hours incubation, H1975 cells; read-out: GI50 H1975
In short: as §1

[19] = tested on: Bel-7402 (human hepatoma cells); test: MTT cancer cell growth inhibition; type: cell-based; settings: Homo sapiens, Bel-7402, 72 h, MTT, 72 hours incubation, Bel-7402 cells; read-out: GI50 Bel-7402
In short: as §1

[20] = tested on: KBM-5 (human chronic myelogenous leukemia); test: MTT cancer cell growth inhibition; type: cell-based; settings: Homo sapiens, KBM5, 72 h, MTT, 72 hours incubation, KBM-5 cells; read-out: GI50 KBM-5
In short: as §1

HDAC1 = HDAC1 (Homo sapiens, UniProt Q13547); test: HDAC biochemical activity measurement (fluorescent substrate deacetylation);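 also: fluorogenic acetyl-lysine substrate (20 µM) deacetylated by HDAC1, then developer releases fluorophore read at 360 nm excitation and 460 nm emission, inhibitor incubated 30 min at 37 °C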
HDAC3 = HDAC3 (Homo sapiens, UniProt O15379); test: as above;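 also: fluorogenic acetyl-lysine substrate (20 µM) deacetylated by HDAC3, then developer added for 15 min at room temperature, release of fluorophore read at excitation 360 nm, emission 460 nm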
[21] = HDAC1, 37° C. 30 minutes, read-out: IC50 HDAC1

Sequence of HDAC2 (Q92769 whole entry, species assumed): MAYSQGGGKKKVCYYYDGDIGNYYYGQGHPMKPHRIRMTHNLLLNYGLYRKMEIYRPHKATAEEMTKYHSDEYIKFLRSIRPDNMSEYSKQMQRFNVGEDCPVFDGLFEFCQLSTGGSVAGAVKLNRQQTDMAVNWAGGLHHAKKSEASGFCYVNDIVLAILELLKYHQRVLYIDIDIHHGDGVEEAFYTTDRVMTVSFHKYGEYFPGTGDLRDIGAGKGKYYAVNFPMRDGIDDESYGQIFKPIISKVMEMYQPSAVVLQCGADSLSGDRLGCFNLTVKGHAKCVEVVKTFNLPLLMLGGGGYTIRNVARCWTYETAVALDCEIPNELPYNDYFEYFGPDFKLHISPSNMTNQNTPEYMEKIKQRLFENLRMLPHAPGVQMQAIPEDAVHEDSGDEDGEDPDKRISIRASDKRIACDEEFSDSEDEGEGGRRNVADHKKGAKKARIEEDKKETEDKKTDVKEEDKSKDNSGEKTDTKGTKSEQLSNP
Sequence of HDAC3 (O15379 whole entry, species assumed): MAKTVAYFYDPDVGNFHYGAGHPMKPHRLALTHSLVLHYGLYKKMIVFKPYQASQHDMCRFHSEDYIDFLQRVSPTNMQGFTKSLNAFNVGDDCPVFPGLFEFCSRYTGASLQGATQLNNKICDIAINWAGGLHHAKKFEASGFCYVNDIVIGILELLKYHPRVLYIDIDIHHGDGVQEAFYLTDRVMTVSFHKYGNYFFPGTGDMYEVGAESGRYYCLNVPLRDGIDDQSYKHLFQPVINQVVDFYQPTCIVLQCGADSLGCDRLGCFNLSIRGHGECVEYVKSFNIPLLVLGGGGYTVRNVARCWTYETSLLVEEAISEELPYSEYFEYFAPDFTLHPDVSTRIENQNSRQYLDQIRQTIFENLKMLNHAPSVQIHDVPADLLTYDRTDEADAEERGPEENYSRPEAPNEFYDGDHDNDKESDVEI
Sequence of HDAC3 (Q9Y618 395-489 partner limits assumed, species assumed): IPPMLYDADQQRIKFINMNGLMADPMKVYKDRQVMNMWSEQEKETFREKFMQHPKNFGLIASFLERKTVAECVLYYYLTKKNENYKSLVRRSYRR
Sequence of HDAC1 (Q13547 whole entry, species assumed): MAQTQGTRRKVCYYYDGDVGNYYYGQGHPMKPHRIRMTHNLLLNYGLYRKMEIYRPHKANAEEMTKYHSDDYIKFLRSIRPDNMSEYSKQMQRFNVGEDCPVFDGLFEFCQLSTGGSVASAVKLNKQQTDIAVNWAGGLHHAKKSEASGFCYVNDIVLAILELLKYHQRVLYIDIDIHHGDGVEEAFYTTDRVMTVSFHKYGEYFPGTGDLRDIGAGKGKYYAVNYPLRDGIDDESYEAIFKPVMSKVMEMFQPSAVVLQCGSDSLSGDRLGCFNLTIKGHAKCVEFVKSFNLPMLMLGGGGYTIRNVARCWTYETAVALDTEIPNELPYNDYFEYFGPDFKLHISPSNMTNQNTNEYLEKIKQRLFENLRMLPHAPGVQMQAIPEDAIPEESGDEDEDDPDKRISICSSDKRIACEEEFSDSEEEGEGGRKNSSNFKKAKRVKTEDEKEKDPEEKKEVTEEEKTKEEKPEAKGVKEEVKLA

pIC50 (HDAC2) | GI50 [1] [nM] | GI50 [2] [nM] | GI50 [3] [nM] | GI50 [4] [nM] | GI50 [5] [nM] | GI50 [6] [nM] | GI50 [7] [nM] | GI50 [8] [nM] | GI50 [9] [nM] | GI50 [10] [nM] | GI50 [11] [nM] | GI50 [13] [nM] | GI50 [15] [nM] | GI50 [16] [nM] | GI50 [17] [nM] | GI50 [18] [nM] | GI50 [19] [nM] | GI50 [20] [nM] | pIC50 (HDAC1; [21]) | SMILES | other results
7.43 | 70 | 50 | 80 | 10 | 40 | 60 | 50 | 63 | 40 | 43 | 27 | 57 | 19 | 19 | 83 | 42 | 57 | 74 | 7.09 | C/C=C1\NC(=O)c2nc(ccc2F)CNC(=O)C[C@@H](/C=C/CCSC(=O)CCCCCCC)OC(=O)[C@H](C)NC1=O [Example 60] | GI50 [12]: 20 nM; GI50 [14]: 10 nM; pIC50 (HDAC3): 7.80
6.48 | 40 | 60 | 30 | 30 | 20 | 60 | 60 | 61 | 30 | 26 | 33 | 61 | 37 | 37 | 39 | 34 | 61 | 49 | 7.19 | C/C=C1\NC(=O)c2nc(ccc2F)CNC(=O)C[C@@H](/C=C/CCSC(C)=O)OC(=O)[C@H](CCCCN)NC1=O [Compound 72] | GI50 [12]: 30 nM; GI50 [14]: 30 nM; pIC50 (HDAC1; Table 3, column C, read-out: IC50 HDAC1, C (six-membered ring with substituents)): 7.19; pIC50 (HDAC3; read-out: IC50 HDAC3, HDAC3, 37° C. 30 minutes): 6.87
7.28 | – | – | – | – | – | – | – | 49 | – | 59 | 53 | 62 | 47 | 39 | 27 | 64 | 56 | 15 | 7.04 | C=C1NC(=O)c2cc(SC)cc(n2)CNC(=O)C[C@@H](/C=C/CCSC(C)=O)OC(=O)[C@H](C(C)C)NC1=O [Compound 205] | GI50 ([1]; Hela cells): 70 nM; GI50 ([2]; HT1080 cells): 10 nM; GI50 ([3]; MCF-7 cells): 70 nM; GI50 ([4]; MOLT-4 cells): 50 nM; GI50 ([5]; A549 cells): 50 nM; GI50 ([6]; BGC-823 cells): 50 nM; GI50 ([7]; PANC-1 cells): 30 nM; GI50 ([9]; U937 cells): 40 nM; GI50 ([12]; DU145 cells): 60 nM; GI50 ([14]; lncap cells): 60 nM; pIC50 (HDAC3): 7.42

From US10065990B2, “Cyclic peptide compound, and preparation method, pharmaceutical composition and use thereof” (HANGZHOU GUANYU BIO-MEDICAL CO., LTD, priority 2013, dated 2018)
